Key:
IKZF2 [1] = target: T1, IKZF2 (Homo sapiens (Human), UniProt Q96SW2+Q9UKS7); experiment: In vitro IKZF2 FACS Assay in Jurkat cells; assay type: cell-based; conditions: 24 hrs; for DC50: half maximal degradation concentration; for Dmax: maximal degradation percentage
Method: In vitro IKZF2 FACS Assay
DC50, A: <1 nM; B: 1-10 nM; C: 10-100 nM; D: 100-1000 nM; E: >1000 nM. Dmax, A: >80%; B: 60-80%; C: 40-60%; D: 20-40%; E: <20%.

IKZF2 [2] = target: T1, IKZF2; experiment: In vitro IKZF2 HiBit Assay (HEK293T Flp-in-HiBiT cells); assay type: cell-based; conditions: HEK293T Flp-in-HiBiT cells, 6 hrs incubation; for DC50: read-out: IKZF2 HiBit DC50; for Dmax: HEK-293T, read-out: IKZF2 HiBit Dmax (%)
Procedure, shortened: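 HEK293T Flp-in cells carrying an endogenous N-terminal HiBiT tag on IKZF2 were exposed to compound for 6 h at 0.1% DMSO. The dilution series was 11 doses at 3-fold, diluted from 1 mM. Nano-Glo HiBiT lytic luminescence, normalized to DMSO, gave DC50 for 50% degradation and Dmax across the concentration range, both reported in letter bins.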

IKZF1 = IKZF1 (Homo sapiens (Human), UniProt Q13422+Q96SW2); experiment: In vitro IKZF1 HiBit Assay (HEK293T Flp-in-HiBiT-IKZF1 stable cell line); assay type: cell-based; conditions: HEK293T Flp-in-HiBiT-IKZF1 stable cell line, 6 hrs incubation; for DC50: read-out: IKZF1 HiBit DC50; for Dmax: HEK-293T, read-out: IKZF1 HiBit Dmax (%)
Procedure, shortened: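 HEK293T Flp-in cells carrying N-terminal HiBiT-tagged IKZF1 were exposed to compound (0.1% DMSO) for 6 h at 3000 cells/well. HiBiT luminescence was read after lytic LgBiT detection. DC50 and Dmax were taken from DMSO-normalized dose-response curves.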

CRBN/DDB1 = CRBN/DDB1 (Homo sapiens (Human), UniProt Q96SW2); experiment: IC50 measurements for binding to CRBN/DDB1 (HTRF); conditions: His tagged CRBN+DDB, Cy5-labeled Thalidomide probe, one hour
Procedure, shortened: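 HTRF competition binding with 2 nM His-tagged CRBN-DDB1 complex, 60 nM Cy5-thalidomide probe and 0.4 nM anti-His Tb cryptate in 50 mM HEPES pH 7.5, 1 mM TCEP, 0.01% Brij-35, 50 mM NaCl, 0.1% BSA. Read after 1 h at room temperature; IC50 from four-parameter dose-response fit.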

Chain of CRBN/DDB1 (Q96SW2 whole entry, species assumed): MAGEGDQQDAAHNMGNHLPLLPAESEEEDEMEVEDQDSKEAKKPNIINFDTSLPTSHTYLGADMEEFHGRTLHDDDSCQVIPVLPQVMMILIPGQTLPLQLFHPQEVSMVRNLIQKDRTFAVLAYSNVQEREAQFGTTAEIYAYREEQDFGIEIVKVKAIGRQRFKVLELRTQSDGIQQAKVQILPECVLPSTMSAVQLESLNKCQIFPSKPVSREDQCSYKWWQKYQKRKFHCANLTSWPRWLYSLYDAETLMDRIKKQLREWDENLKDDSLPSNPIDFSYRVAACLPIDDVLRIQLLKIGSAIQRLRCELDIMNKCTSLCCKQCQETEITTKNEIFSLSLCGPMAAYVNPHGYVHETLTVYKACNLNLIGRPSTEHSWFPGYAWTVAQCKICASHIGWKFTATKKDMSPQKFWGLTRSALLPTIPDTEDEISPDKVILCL
Chain of CRBN/DDB1 (Q16531 whole entry partner, species assumed): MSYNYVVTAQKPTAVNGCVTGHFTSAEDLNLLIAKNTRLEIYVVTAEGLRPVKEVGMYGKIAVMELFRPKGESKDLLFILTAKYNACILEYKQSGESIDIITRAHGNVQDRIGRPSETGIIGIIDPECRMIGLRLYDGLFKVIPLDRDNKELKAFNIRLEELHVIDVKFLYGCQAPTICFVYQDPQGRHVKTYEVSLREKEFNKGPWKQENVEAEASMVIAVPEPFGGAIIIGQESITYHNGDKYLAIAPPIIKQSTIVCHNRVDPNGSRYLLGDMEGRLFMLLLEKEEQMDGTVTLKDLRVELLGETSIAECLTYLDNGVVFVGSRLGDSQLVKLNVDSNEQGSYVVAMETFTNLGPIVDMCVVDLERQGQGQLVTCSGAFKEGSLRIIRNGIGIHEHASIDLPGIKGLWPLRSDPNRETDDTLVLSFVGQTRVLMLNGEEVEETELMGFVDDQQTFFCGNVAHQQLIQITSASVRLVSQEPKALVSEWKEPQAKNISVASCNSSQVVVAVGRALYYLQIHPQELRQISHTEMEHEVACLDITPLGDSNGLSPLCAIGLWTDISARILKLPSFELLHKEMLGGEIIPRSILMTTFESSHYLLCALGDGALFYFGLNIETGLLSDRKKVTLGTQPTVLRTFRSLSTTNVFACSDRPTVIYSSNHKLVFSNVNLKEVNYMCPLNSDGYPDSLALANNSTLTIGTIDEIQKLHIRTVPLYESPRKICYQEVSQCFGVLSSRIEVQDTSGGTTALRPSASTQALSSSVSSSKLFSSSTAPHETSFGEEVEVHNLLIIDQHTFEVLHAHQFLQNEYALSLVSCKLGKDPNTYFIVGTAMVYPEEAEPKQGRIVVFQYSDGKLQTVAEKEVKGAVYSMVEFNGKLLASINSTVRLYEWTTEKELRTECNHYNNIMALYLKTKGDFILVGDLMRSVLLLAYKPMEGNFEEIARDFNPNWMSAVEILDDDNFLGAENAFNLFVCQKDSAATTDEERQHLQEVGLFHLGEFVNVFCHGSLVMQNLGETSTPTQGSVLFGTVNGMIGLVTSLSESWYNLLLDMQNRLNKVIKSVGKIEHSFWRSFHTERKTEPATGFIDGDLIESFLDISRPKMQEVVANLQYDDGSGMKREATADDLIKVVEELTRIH
Chain of IKZF1 (Q13422 whole entry): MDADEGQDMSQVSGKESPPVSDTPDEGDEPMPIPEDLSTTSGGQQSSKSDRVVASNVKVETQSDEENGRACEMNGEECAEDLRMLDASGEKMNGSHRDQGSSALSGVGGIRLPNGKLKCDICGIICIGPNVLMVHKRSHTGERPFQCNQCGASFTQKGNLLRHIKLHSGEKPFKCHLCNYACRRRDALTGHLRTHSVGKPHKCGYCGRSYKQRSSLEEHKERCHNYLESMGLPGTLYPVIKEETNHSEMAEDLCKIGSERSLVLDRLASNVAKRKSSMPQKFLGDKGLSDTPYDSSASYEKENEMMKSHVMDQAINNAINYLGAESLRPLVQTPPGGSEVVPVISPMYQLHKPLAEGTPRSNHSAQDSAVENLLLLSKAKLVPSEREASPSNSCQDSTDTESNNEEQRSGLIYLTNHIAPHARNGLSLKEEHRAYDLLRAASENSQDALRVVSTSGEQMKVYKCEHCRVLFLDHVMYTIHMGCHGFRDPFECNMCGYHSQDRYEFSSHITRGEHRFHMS
Chain of IKZF1 (Q96SW2 whole entry): as the sequence (Q96SW2 whole entry, species assumed) above
Chain of IKZF1 (Q16531 2-1140 partner): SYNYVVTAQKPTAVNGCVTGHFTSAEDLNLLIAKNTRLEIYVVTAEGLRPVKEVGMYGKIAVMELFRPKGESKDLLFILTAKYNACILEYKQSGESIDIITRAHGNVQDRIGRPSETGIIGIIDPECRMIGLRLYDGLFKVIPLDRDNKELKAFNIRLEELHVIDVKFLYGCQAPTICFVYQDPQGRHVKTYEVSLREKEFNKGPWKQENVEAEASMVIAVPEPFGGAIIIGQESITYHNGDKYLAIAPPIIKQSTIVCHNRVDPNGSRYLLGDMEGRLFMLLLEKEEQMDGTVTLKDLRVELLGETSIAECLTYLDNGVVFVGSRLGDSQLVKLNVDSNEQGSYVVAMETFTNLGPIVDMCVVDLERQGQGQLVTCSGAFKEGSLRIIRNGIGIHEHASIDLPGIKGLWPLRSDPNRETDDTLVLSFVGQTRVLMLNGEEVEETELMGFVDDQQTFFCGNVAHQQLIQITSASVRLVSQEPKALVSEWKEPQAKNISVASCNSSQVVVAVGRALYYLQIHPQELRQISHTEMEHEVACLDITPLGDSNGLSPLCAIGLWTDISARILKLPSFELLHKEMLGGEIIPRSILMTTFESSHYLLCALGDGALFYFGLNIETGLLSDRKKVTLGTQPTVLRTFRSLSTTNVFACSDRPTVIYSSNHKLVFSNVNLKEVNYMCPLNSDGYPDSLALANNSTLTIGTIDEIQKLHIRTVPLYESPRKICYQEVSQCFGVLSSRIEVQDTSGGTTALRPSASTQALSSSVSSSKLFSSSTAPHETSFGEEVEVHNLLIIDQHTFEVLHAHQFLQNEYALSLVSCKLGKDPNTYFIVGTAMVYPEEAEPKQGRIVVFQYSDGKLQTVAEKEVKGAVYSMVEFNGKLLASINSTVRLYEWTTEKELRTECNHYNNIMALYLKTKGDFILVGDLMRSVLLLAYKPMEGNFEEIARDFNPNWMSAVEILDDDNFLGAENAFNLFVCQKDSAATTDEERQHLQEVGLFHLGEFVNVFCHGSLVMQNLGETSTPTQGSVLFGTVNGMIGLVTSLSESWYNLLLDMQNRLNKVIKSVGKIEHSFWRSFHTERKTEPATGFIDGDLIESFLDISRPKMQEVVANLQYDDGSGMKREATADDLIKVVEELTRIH
T1 sequence (Q9UKS7 whole entry): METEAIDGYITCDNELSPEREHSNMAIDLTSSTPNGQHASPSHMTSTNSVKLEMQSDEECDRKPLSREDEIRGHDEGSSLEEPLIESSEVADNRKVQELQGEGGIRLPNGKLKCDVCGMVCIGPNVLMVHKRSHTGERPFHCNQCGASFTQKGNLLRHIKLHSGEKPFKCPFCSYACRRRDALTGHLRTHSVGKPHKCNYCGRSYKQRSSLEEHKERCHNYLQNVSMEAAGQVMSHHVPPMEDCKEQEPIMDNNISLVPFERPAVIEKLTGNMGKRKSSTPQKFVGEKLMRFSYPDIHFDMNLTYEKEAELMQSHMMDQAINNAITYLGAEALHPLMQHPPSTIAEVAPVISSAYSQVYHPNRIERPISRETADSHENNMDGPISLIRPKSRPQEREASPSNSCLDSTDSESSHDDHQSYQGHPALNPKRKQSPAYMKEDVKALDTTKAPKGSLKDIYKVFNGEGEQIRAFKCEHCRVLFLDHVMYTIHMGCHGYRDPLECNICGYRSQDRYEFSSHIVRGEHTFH
T1 sequence (Q96SW2 whole entry): as the sequence (Q96SW2 whole entry, species assumed) above
T1 sequence (Q16531 2-1140 partner): as the sequence (Q16531 2-1140 partner) above

SMILES	DC50 (IKZF2 [1])	Dmax (IKZF2 [1])	DC50 (IKZF2 [2])	Dmax (IKZF2 [2])	DC50 (IKZF1)	Dmax (IKZF1)	IC50 (CRBN/DDB1)
Nc1n[nH]c2c(CN3CCCC3)cc(-c3ccc4c(c3)CN(C3CCC(=O)NC3=O)C4=O)nc12 (centres unmarked) [Example 151, 3-(5-(3-amino-7-(pyrrolidin-1-ylmethyl)-1H-pyrazolo[4,3-b]pyridin-5-yl)-1-oxoisoindolin-2-yl) piperidine-2,6-dione]	1 to 10 nM	> 80%	1 to 10 nM	> 80%	> 10000 nM	< 20%	
Cn1cnc2c(CN3CCCC3)cc(-c3ccc4c(c3)CN(C3CCC(=O)NC3=O)C4=O)nc21 (centres unmarked) [Example 180, 3-(5-(3-methyl-7-(pyrrolidin-1-ylmethyl)-3H-imidazo[4,5-b]pyridin-5-yl)-1-oxoisoindolin-2-yl) piperidine-2,6-dione]	10 to 100 nM	> 80%	1 to 10 nM	> 80%	1 to 10 nM	20 to 40%	
CNc1n[nH]c2c(CN3CCCC3)cc(-c3ccc4c(c3)CN(C3CCC(=O)NC3=O)C4=O)nc12 (centres unmarked) [Example 181, 3-(5-(3-(methylamino)-7-(pyrrolidin-1-ylmethyl)-1H-pyrazolo[4,3-b]pyridin-5-yl)-1-oxoisoindolin-2-yl) piperidine-2,6-dione]	1 to 10 nM	> 80%	1 to 10 nM	> 80%	10 to 100 nM	40 to 60%	
O=C1CCC(N2Cc3cc(-c4nc(CN5CCCC5)c5cc[nH]c5n4)ccc3C2=O)C(=O)N1 (centres unmarked) [Example 182, 3-(1-oxo-5-(4-(pyrrolidin-1-ylmethyl)-7H-pyrrolo[2,3-d]pyrimidin-2-yl)isoindolin-2-yl) piperidine-2,6-dione]	10 to 100 nM	60 to 80%	1 to 10 nM	> 80%	> 10000 nM	< 20%	
CCNc1n[nH]c2c(CN3CCCC3)cc(-c3ccc4c(c3)CN(C3CCC(=O)NC3=O)C4=O)nc12 (centres unmarked) [Example 199, 3-(5-(3-(ethylamino)-7-(pyrrolidin-1-ylmethyl)-1H-pyrazolo[4,3-b]pyridin-5-yl)-1-oxoisoindolin-2-yl) piperidine-2,6-dione]	10 to 100 nM	60 to 80%	1 to 10 nM	> 80%	10 to 100 nM	20 to 40%	
O=C1CCC(N2Cc3cc(-c4cc(CN5CCCC5)c5cnn(C6COC6)c5n4)ccc3C2=O)C(=O)N1 (centres unmarked) [Example 203, 3-(5-(1-(oxetan-3-yl)-4-(pyrrolidin-1-ylmethyl)-1H-pyrazolo[3,4-b]pyridin-6-yl)-1-oxoisoindolin-2-yl) piperidine-2,6-dione]	1 to 10 nM	> 80%	1 to 10 nM	> 80%	10 to 100 nM	20 to 40%	
O=C1CCC(N2Cc3cc(-c4cc(CN5CCCC5)c5cnn(C6CCC6)c5n4)ccc3C2=O)C(=O)N1 (centres unmarked) [Example 206, 3-(5-(1-cyclobutyl-4-(pyrrolidin-1-ylmethyl)-1H-pyrazolo[3,4-b]pyridin-6-yl)-1-oxoisoindolin-2-yl) piperidine-2,6-dione]	1 to 10 nM	> 80%	1 to 10 nM	> 80%	> 10000 nM	< 20%	
O=C1CCC(N2Cc3cc(-c4nc(CN5CCCC5)c5ccn(C6CS(=O)(=O)C6)c5n4)ccc3C2=O)C(=O)N1 (centres unmarked) [Example 220, 3-(5-(7-(1,1-dioxidothietan-3-yl)-4-(pyrrolidin-1-ylmethyl)-7H-pyrrolo[2,3-d]pyrimidin-2-yl)-1-oxoisoindolin-2-yl) piperidine-2,6-dione]	10 to 100 nM	40 to 60%	10 to 100 nM	60 to 80%	> 10000 nM	< 20%	
Cc1cn(C2COC2)c2nc(-c3ccc4c(c3)CN(C3CCC(=O)NC3=O)C4=O)cc(CN3CCCC3)c12 (centres unmarked) [Example 240, 3-(5-(3-methyl-1-(oxetan-3-yl)-4-(pyrrolidin-1-ylmethyl)-1H-pyrrolo[2,3-b]pyridin-6-yl)-1-oxoisoindolin-2-yl) piperidine-2,6-dione]	1 to 10 nM	> 80%	1 to 10 nM	> 80%	> 10000 nM	< 20%	
O=C1CCC(N2Cc3cc(-c4cc(CN5CCCC5)c5nccc(OC6CC6)c5n4)ccc3C2=O)C(=O)N1 (centres unmarked) [Example 242, 3-(5-(8-cyclopropoxy-4-(pyrrolidin-1-ylmethyl)-1,5-naphthyridin-2-yl)-1-oxoisoindolin-2-yl) piperidine-2,6-dione]	1 to 10 nM	> 80%	1 to 10 nM	> 80%	> 10000 nM	< 20%	
O=C1CCC(N2Cc3cc(-c4cc(CN5CCCC5)c5c(C(F)(F)F)nn(C6COC6)c5n4)ccc3C2=O)C(=O)N1 (centres unmarked) [Example 245, 3-(5-(1-(oxetan-3-yl)-4-(pyrrolidin-1-ylmethyl)-3-(trifluoromethyl)-1H-pyrazolo[3,4-b]pyridin-6-yl)-1-oxoisoindolin-2-yl) piperidine-2,6-dione]	1 to 10 nM	40 to 60%	1 to 10 nM	40 to 60%	> 10000 nM	< 20%	
Cc1nn(C2COC2)c2nc(-c3ccc4c(c3)CN(C3CCC(=O)NC3=O)C4=O)cc(CN3CCCC3)c12 (centres unmarked) [Example 246, 3-(5-(3-methyl-1-(oxetan-3-yl)-4-(pyrrolidin-1-ylmethyl)-1H-pyrazolo[3,4-b]pyridin-6-yl)-1-oxoisoindolin-2-yl) piperidine-2,6-dione]	1 to 10 nM	> 80%	1 to 10 nM	> 80%	> 10000 nM	< 20%	
Cn1ncc2c(CN3CCCC3)cc(-c3ccc4c(c3)CN(C3CCC(=O)NC3=O)C4=O)nc21 (centres unmarked) [Example 313, 3-(5-(1-methyl-4-(pyrrolidin-1-ylmethyl)-1H-pyrazolo[3,4-b]pyridin-6-yl)-1-oxoisoindolin-2-yl) piperidine-2,6-dione]			< 1 nM	> 80%	10 to 100 nM	20 to 40%	1000 to 5000 nM
Cn1cc2c(CN3CCCC3)cc(-c3ccc4c(c3)CN(C3CCC(=O)NC3=O)C4=O)nc2n1 (centres unmarked) [Example 315, 3-(5-(2-methyl-4-(pyrrolidin-1-ylmethyl)-2H-pyrazolo[3,4-b]pyridin-6-yl)-1-oxoisoindolin-2-yl) piperidine-2,6-dione]			10 to 100 nM	> 80%	10 to 100 nM	20 to 40%	100 to 500 nM
O=C1CCC(N2Cc3cc(-c4cc(CN5CCCC5)c5cn(C6CCC6)nc5n4)ccc3C2=O)C(=O)N1 (centres unmarked) [Example 316, 3-(5-(2-cyclobutyl-4-(pyrrolidin-1-ylmethyl)-2H-pyrazolo[3,4-b]pyridin-6-yl)-1-oxoisoindolin-2-yl) piperidine-2,6-dione]			1 to 10 nM	> 80%	10 to 100 nM	20 to 40%	100 to 500 nM
O=C1CCC(N2Cc3cc(-c4cc(CN5CCCC5)c5cn(C6COC6)nc5n4)ccc3C2=O)C(=O)N1 (centres unmarked) [Example 317, 3-(5-(2-(oxetan-3-yl)-4-(pyrrolidin-1-ylmethyl)-2H-pyrazolo[3,4-b]pyridin-6-yl)-1-oxoisoindolin-2-yl) piperidine-2,6-dione]			1 to 10 nM	60 to 80%	> 10000 nM	< 20%	100 to 500 nM
